Patent US11434248B2, “PDE9 inhibitor and use thereof” (Nanjing TransThera Biosciences Co. Ltd., priority 2017, dated 2022)
Where two headings read alike, the source gives them in different places. Each block holds one compound with its values, some of them ahead of it.

How the values were obtained:
[1] = Stability in human liver microsome
[2] = human
[3] = Canine pharmacokinetic evaluation; conditions: Beagle dogs, n = 3; for F %: dose iv/po 1/2 mg/kg; for AUCinf po / tz1/2 po (terminal elimination half-life): intragastric 2.0 mg/kg; for AUCinf iv / Cl_obs iv (clearance rate) / tz1/2 iv (terminal elimination half-life): intravenous bolus 1 mg/kg
[4] = Rat pharmacokinetic evaluation; type: in vivo, SD male rats; conditions: SD rat; for tz1/2 po (terminal elimination half-life): intragastric 5.0 mg/kg; for tz1/2 iv (terminal elimination half-life): intravenous bolus 1 mg/kg
Protocol: Experimental Example 4: Rat Pharmacokinetic Evaluation of the Compounds of the Invention
Aim: The in vivo pharmacokinetic parameters of the compounds in SD male rats (purchased from Beijing Vital River Animal Technology Co., Ltd.) were evaluated and bioavailability of the compounds was examined.
Animal Administration and Sample Collection:
The solution of compounds 65, 90, 107, 158 was intragastrically administered to SD rat at a dose of 5.0 mg/kg.
The experimental compound 76 was dissolved in 30% DMF+30% PEG400+40% saline to prepare a solution. The solution of compound 76 was intragastrically administered to SD rat at a dose of 5.0 mg/kg.
The experimental compound 76 was dissolved in 30% DMF+30% PEG400+40% saline to prepare a solution.
The experimental compounds 84 and 96 were dissolved in 5% DMSO+10% PEG400+85% (28% HP-β-CD) saline to prepare a solution. The solution of compounds 84 and 96 was intragastrically administered to SD rat at a dose of 5.0 mg/kg.
The experimental compounds 84 and 96 were dissolved in 5% DMSO+10% PEG400+85% (28% HP-β-CD) saline to prepare a solution.
The animals were fixed. The tail was heated with a water bath at 10 min before each time point. About 100 μL of blood from tail vein was collected, and then placed in an anti-coagulation tube containing EDTA-K2 after collection. Blood samples were centrifuged at 8000 rpm at 4° C. for 6 min to obtain plasma samples.
The concentration of test sample was output using Analyst 1.6.1 from AB SCIEX.

[5] = molecular target: human PDE9 (Homo sapiens (Human), UniProt O76083); conditions: background statement on conventional PDE inhibitors; cited from earlier work
Chain of human PDE9 (O76083 whole entry): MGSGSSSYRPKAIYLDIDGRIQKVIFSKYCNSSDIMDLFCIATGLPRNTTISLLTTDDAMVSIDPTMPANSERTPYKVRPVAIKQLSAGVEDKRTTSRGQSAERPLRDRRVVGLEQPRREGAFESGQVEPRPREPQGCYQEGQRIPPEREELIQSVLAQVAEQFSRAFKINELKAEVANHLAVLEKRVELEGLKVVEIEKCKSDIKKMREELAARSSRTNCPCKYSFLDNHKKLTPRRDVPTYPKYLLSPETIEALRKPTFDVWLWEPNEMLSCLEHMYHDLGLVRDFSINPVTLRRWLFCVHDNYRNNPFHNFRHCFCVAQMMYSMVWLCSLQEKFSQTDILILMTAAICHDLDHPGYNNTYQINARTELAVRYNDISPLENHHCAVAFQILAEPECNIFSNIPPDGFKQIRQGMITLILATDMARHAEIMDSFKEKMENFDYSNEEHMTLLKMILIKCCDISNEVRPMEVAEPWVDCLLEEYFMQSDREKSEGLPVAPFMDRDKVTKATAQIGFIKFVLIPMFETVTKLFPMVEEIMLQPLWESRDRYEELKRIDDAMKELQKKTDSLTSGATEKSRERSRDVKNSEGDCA

[6] = human liver microsome 0.5 mg protein/mL, compound 1 μM, 37° C.

k [1, 6]: 0.191 min⁻¹
SMILES: N#Cc1c(N2CC[C@@H](n3cccn3)C2)c2ccncc2[nH]c1=O [Compound 19, (R)-4-(3-(1H-pyrazol-1-yl)pyrrolidin-1-yl)-2-oxo-1,2-dihydro-1,7-naphthyridin-3-carbonitrile]

SMILES: N#Cc1c(N2CCC3(CC2)CC3)c2ccncc2[nH]c1=O [Compound 25, 2-oxo-4-(6-azaspiro[2.5]octane-6-yl)-1,2-dihydro-1,7-naphthyridin-3-carbonitrile]
k [2]: 0.0022 min⁻¹
F % [3]: 99.1%
AUCinf po [3]: 4449 ng·h/mL
tz1/2 po (terminal elimination half-life) [3]: 9.45 h
AUCinf iv [3]: 2244 ng·h/mL
Cl_obs iv (clearance rate) [3]: 0.47 L/h/kg
tz1/2 iv (terminal elimination half-life) [3]: 10.4 h
tz1/2 po (terminal elimination half-life) [4]: 1.40 h
tz1/2 iv (terminal elimination half-life) [4]: 0.51 h

SMILES: N#Cc1c(N2CCC3(CC2)CC3)c2cc(C(O)CO)ncc2[nH]c1=O (centres unmarked) [Compound 32, 6-(1,2-dihydroxyethyl)-2-oxo-4-(6-azaspiro[2.5]octane-6-yl)-1,2-dihydro-1,7-naphthyridin-3-carbonitrile]
T½ [1, 6]: →∞
k [1, 6]: -0.3760 min⁻¹

SMILES: N#Cc1c(N2CCC3(CCC3)CC2)c2cc(N3CC(O)C3)ncc2[nH]c1=O [Compound 51, 6-(3-hydroxyazetidin-1-yl)-2-oxo-4-(7-azaspiro[3.5]nonane-7-yl)-1,2-dihydro-1,7-naphthyridin-3-carbonitrile]
k [2]: 0.9418 min⁻¹

SMILES: N#Cc1c(N2CCC3(CCC3)CC2)c2cc(N3CC(N)C3)ncc2[nH]c1=O [Compound 53, 6-(3-aminoazetidin-1-yl)-2-oxo-4-(7-azaspiro[3.5]nonane-7-yl)-1,2-dihydro-1,7-naphthyridin-3-carbonitrile]
k [2]: 0.4821 min⁻¹

SMILES: Cc1cc2c(N3CCC4(CCC4)CC3)c(C#N)c(=O)[nH]c2cn1 [Compound 65, 6-methyl-2-oxo-4-(7-azaspiro[3.5]nonane-7-yl)-1,2-dihydro-1,7-naphthyridin-3-carbonitrile]
F % [3]: 25.5%
AUCinf po [3]: 543 ng·h/mL
tz1/2 po (terminal elimination half-life) [3]: 0.47 h
AUCinf iv [3]: 1065 ng·h/mL
Cl_obs iv (clearance rate) [3]: 0.94 L/h/kg
tz1/2 iv (terminal elimination half-life) [3]: 0.49 h
tz1/2 po (terminal elimination half-life) [4]: 2.25 h
tz1/2 iv (terminal elimination half-life) [4]: 1.47 h

SMILES: COc1cc2c(N3CCC4(CCC4)CC3)c(C#N)c(=O)[nH]c2cn1 [Compound 66, 6-methoxy-2-oxo-4-(7-azaspiro[3.5]nonane-7-yl)-1,2-dihydro-1,7-naphthyridin-3-carbonitrile]
T½ [1, 6]: →^
k [1, 6]: -0.515 min⁻¹

SMILES: CCc1cc2c(N3CCC4(CC3)CC4)c(C#N)c(=O)[nH]c2cn1 [Compound 76, 6-ethyl-2-oxo-4-(6-azaspiro[2.5]octane-6-yl)-1,2-dihydro-1,7-naphthyridin-3-carbonitrile]
k [2]: 0.0015 min⁻¹
tz1/2 po (terminal elimination half-life) [4]: 9.60 h
tz1/2 iv (terminal elimination half-life) [4]: 0.89 h

SMILES: N#Cc1c(N2CCC3(CC2)CC3)c2ncccc2[nH]c1=O [Compound 80, 2-oxo-4-(6-azaspiro[2.5]octane-6-yl)-1,2-dihydro-1,5-naphthyridin-3-carbonitrile]
k [2]: 0.9877 min⁻¹

k [1, 6]: 0.0012 min⁻¹
SMILES: COC1(C)CCN(c2c(C#N)c(=O)[nH]c3cnccc23)CC1 [Compound 81, 4-(4-methoxy-4-methylpiperidin-1-yl)-2-oxo-1,2-dihydro-1,7-naphthyridin-3-carbonitrile]

SMILES: CC(C)(O)c1cc2c(N3CCC4(CCC4)CC3)c(C#N)c(=O)[nH]c2cn1 [Compound 82, 6-(2-hydroxypropan-2-yl)-2-oxo-4-(7-azaspiro[3.5]nonane-7-yl)-1,2-dihydro-1,7-naphthyridin-3-carbonitrile]
k [2]: 0.9760 min⁻¹

SMILES: N#Cc1c(N2CCC3(CC2)CC3)c2cc(C(=O)O)ncc2[nH]c1=O [Compound 83, 3-cyano-2-oxo-4-(6-azaspiro[2.5]octane-6-yl)-1,2-dihydro-1,7-naphthyridin-6-carboxylic acid]
T½ [1, 6]: →∞
k [1, 6]: 0.5421 min⁻¹

SMILES: CC(C)(O)c1cc2c(N3CCC4(CC3)CC4)c(C#N)c(=O)[nH]c2cn1 [Compound 84, 6-(2-hydroxypropan-2-yl)-2-oxo-4-(6-azaspiro[2.5]octane-6-yl)-1,2-dihydro-1,7-naphthyridin-3-carbonitrile]
tz1/2 po (terminal elimination half-life) [4]: 3.24 h
tz1/2 iv (terminal elimination half-life) [4]: 1.89 h

SMILES: N#Cc1c(N2CCC3(CC2)CC3)c2cc(C(O)C3CC3)ncc2[nH]c1=O (centres unmarked) [Compound 90, 6-(cyclopropyl (hydroxy)methyl)-2-oxo-4-(6-azaspiro[2.5]octane-6-yl)-1,2-dihydro-1,7-naphthyridin-3-carbonitrile]
k [2]: 0.0037 min⁻¹
tz1/2 po (terminal elimination half-life) [4]: 4.49 h
tz1/2 iv (terminal elimination half-life) [4]: 1.48 h

SMILES: CNC(=O)c1cc2c(N3CCC4(CC3)CC4)c(C#N)c(=O)[nH]c2cn1 [Compound 96, 3-cyano-N-methyl-2-oxo-4-(6-azaspiro[2.5]octane-6-yl)-1,2-dihydro-1,7-naphthyridin-6-formamide]
tz1/2 iv (terminal elimination half-life) [4]: 0.30 h⁻¹

k [1, 6]: 0.0023 min⁻¹
SMILES: CCc1cc2c(N3CCC(C)(OC)CC3)c(C#N)c(=O)[nH]c2cn1 [Compound 107, 6-ethyl-4-(4-methoxy-4-methylpiperidin-1-yl)-2-oxo-1,2-dihydro-1,7-naphthyridin-3-carbonitrile]

k [1, 6]: 0.4444 min⁻¹
SMILES: COC1(C)CCN(c2c(C#N)c(=O)[nH]c3cnc(C(C)(C)O)cc23)CC1 [Compound 109, 6-(2-hydroxypropan-2-yl)-4-(4-methoxy-4-methylpiperidin-1-yl)-2-oxo-1,2-dihydro-1,7-naphthyridine-3-carbonitrile]

k [1, 6]: 0.0019 min⁻¹
SMILES: COCCOc1cc2c(N3CCC(C)(OC)CC3)c(C#N)c(=O)[nH]c2cn1 [Compound 145, 4-(4-methoxy-4-methylpiperidin-1-yl)-6-(2-methoxyethoxy)-2-oxo-1,2-dihydro-1,7-naphthyridin-3-carbonitrile]

CLint [1, 6]: 0.1244 mL · min^−1 · mg^−1 proteins
k [1, 6]: 0.727 min⁻¹
Original drug residual % at 60 min ([1]; human liver microsome 0.5 mg protein/mL, compound 1 μM, β-NADPH 1 mM, 37° C., 60 min): 5.19%
half-life at 1 μM ([1]; human, liver microsomes): 11.1 min
SMILES: N#Cc1c(N2CCCCCC2)c2ccccc2[nH]c1=O [Compound I-8, reference compound]

SMILES: CC(C)Cn1c(=O)n(C)c(=O)c2[nH]cnc21 [IBMX]
inhibition activity on PDE9 [5]: no or very low inhibition activity

SMILES: CC(=O)Nc1ccc(-c2c[nH]c(=O)cn2)cc1 [SKF94120]
inhibition activity on PDE9 [5]: no or very low inhibition activity

SMILES: OCCN(CCO)c1nc(N2CCCCC2)c2nc(N(CCO)CCO)nc(N3CCCCC3)c2n1 [dipyridamole]
inhibition activity on PDE9 [5]: no or very low inhibition activity

SMILES: COc1ccc(C2CNC(=O)C2)cc1OC1CCCC1 (centres unmarked) [rolipram]
inhibition activity on PDE9 [5]: no or very low inhibition activity

SMILES: CCOC(=O)C1=C[C@]2(CC)CCCN3CCc4c(n1c1ccccc41)[C@@H]32 [vinpocetine]
inhibition activity on PDE9 [5]: no or very low inhibition activity
